Assay results reported in EP0494754A1, “3-hydroxypyridin-4-one derivatives as pharmaceutical compositions” (BRITISH TECHNOLOGY GROUP LTD, priority 1991, dated 1992).

How the values were obtained:
P. falciparum = assay: Inhibition of growth of P. falciparum in red cell culture (tritiated hypoxanthine uptake, continuous exposure to chelator); type: cell-based; conditions: for minimal effective concentration: Plasmodium falciparum, further study, method not detailed, read-out: dosage level at which marked growth inhibition was observed; for level of activity against red blood cells parasitized by P. falciparum (relative ranking): comparison between compounds, no figures; for growth inhibition of P. falciparum: 50 µmol/l iron binding concentration, after 30 hours, Figure 2; for percentage inhibition of growth after 30 hours as compared with the controls: iron binding concentration of 100 µmol of iron per litre, Figure 1
Description: (A) An uncloned strain of P. falciparum, ITO4, was grown on blood group O red cells using a modification of the method described by Trager et al in Science, 1976, […], 673. An atmopshere consisting of 1% oxygen, 3% carbon dioxide and 96% nitrogen was maintained throughout the experiments. Red cells were suspended at a hematocrit of 3% in RPMI 1640 that had been supplemented with 10% v/v human serum, 2 g/l glucose, 4 mM NaOH, 25 µg/ml gentamicin, 1.9 mM glutamine and 25 mM HEPES to form complete medium. For experimental purposes the red cells were then further diluted with the same medium to a final hematocrit of 1.5%. Synchronised parasite cultures were obtained using a combination of sorbitol lysis and gelatin flotation, as described respectively by Jensen et al in Am. J. Trop. Med. Hyg., 1978, 27, 1274 and Lambros et al in J. Parasitol., 1979, 65, 418, thus ensuring that only young ring forms remained. The starting parasitemia in each experiment was between 0.1 and 0.5%.
A red cell suspension containing only recently synchronised ring parasites was treated with 0.2 µCi of tritiated hypoxanthine per 100 µl of red cell suspension and one of ten chelating agents as identified in the Table was added in complete medium to the suspension in an amount such as to produce an iron binding concentration of 100 µmol of iron per litre (all of the chelators combine with iron in a ratio of 3 moles of chelator:1 mole of iron apart from the chelator number 10, desferrioxamine, which combines in a 1:1 molar ratio). The test cultures were immediately dispersed in 200 µl aliquots into 96 well microculture plates. Each chelator was tested in three or more wells and the whole experiment was carried out at least twice for each chelator. Control cultures were used in each experiment which contained no iron chelator.
The growth of the P. falciparum parasites was assessed both by light microscopy examination of thin films that had been stained with Giemsa and through measurement of tritiated hypoxanthine uptake, the cell cultures being harvested onto glass fibre filters and radioactivity, in terms of beta emission from each well, being measured in a flat bed liquid scintillation counter as described by Potter et al in Phys. Med. Biol., 1986, 31(4), 361.
The chelators tested consisted of 1-(2′-carboxyethyl)-3-hydroxy-2-methylpyridin-4-one (R₁ = CH₂CH₂CO₂H, R₂ = CH₃, R₃ = R₄ = H; compound 1) and, for the purposes of comparison with this chelator, nine other chelators not of formula (I) as defined hereinbefore, of which compounds 2 to 9 are 3-hydroxypyridin-4-ones and compound 10 is desferrioxamine. […] These findings were supported by a morphological examination of red cells sampled from the cultures. […] (B) The effect of using different dosage levels than the 100 µmol/l level used in (A) was studied employing the same procedure but using four dosage levels of 10 µmol/l, 25 µmol/l, 50 µmol/l and […]. Only the eight chelators which produced an inhibitory effect at 100 µmol/l were studied and controls containing no iron chelator were again employed.

MEL cells, clone 585 = assay: Inhibition of growth of murine erythroleukaemia (MEL) cells, cell counting; type: cell-based; conditions: 50 µmol/l iron binding concentration; after 30 hours; Figure 2
Description: MEL cells, clone 585, were grown in suspension culture at 37°C in RPMI 1640 that had been supplemented with 13% v/v foetal calf serum, 25 µl/ml gentamicin, 1.9 mM glutamine and 2% diaminopurine as described by Peto et al in Br. J. Haematol., 1983, 54, 623. The cultures were maintained in an atmosphere containing 5% carbon dioxide and passaged every 3-4 days at a seeding concentration of 1-2 x 10⁴/ml to ensure that the cells were continually in logarithmic growth phase. Under these conditions, the doubling time for cell growth was 30-36 hours.
10 ml volumes of cell suspension were incubated in 50 ml flasks with each of the ten chelators identified in the Table at a 50 µmol/l iron binding concentration, controls being employed which contained no chelator. 400 µl aliquots were removed in duplicate for growth assessment at 24 hour intervals over the next four days. The experiment was repeated on three separate occasions, the initial cell concentration in each case being 2-3 x 10⁴ cells/ml. Cell growth was assessed both by examination of cultures using light microscopy and by cell counting. At various times throughout each experiment, 400 µl culture was added to 19.6 ml Isoton and the number of particles counted using a Coulter Counter ZN set at threshold 20 and attenuation 0.4
The effect of the different chelators on growth of the MEL cells after 30 hours was compared with the effect produced after a similar time by the same chelators at a 50 µmol/l iron binding concentration using the procedure described in Example 2(A). The results are illustrated in Figure 2. It will be seen that the compounds 2, 3, 4, 5, 6, 9 and 10 inhibited growth of MEL cells and of P. falciparum, the minimum growth inhibition being 80% and 70% respectively. […] When these two groups of chelators were examined together a close linear correlation (r = 0.978) was found between the degree of growth inhibition produced in both types of cell for each chelator studied. The compound 1 was distinguished from all of the other chelators in being the only one to have no significant inhibitory effect on the growth of MEL cells (<10%) whilst at the same time producing a substantial inhibitory effect on the growth of P. falciparum (>75%).

SMILES	minimal effective concentration (P. falciparum) [µM]	level of activity against red blood cells parasitized by P. falciparum (relative ranking) (P. falciparum)	growth inhibition of MEL cells (MEL cells, clone 585)	growth inhibition of P. falciparum (P. falciparum)	percentage inhibition of growth after 30 hours as compared with the controls (P. falciparum)
Cc1c(O)c(=O)ccn1CCS(=O)(=O)O [3-hydroxy-2-methyl-1-(2-sulphoethyl)-pyridin-4-one]	1				
Cn1ccc(=O)c(O)c1CC(=O)O [(5), 2-carboxymethyl-3-hydroxy-1-methylpyridin-4-one]	0.5				
CCc1c(O)c(=O)ccn1CCC(=O)O [(12), 1-(2-carboxyethyl)-2-ethyl-3-hydroxypyridin-4-one]	0.5	higher level of activity than compound (9)			
Cc1c(O)c(=O)ccn1CCCC(=O)O [(16), 1-(3-carboxypropyl)-2-methyl-3-hydroxypyridin-4-one]	0.5	higher level of activity than compound (9)			
Cc1c(O)c(=O)ccn1C [compound 2, 3-hydroxy-1,2-dimethylpyridin-4-one]			≥ 80%	≥ 70%	more than 65%
CC1=NC=CC(=O)C1O (stereo not shown) [compound 3, 3-hydroxy-2-methylpyridin-4-one]			≥ 80%	≥ 70%	more than 65%
Cc1c(O)c(=O)ccn1CCO [compound 4, 3-hydroxy-1-(2-hydroxyethyl)-2-methylpyridin-4-one]			≥ 80%	≥ 70%	more than 65%
Cc1c(O)c(=O)ccn1CCN.Cl [compound 5, 1-(2-aminoethyl)-3-hydroxy-2-methylpyridin-4-one hydrochloride]			≥ 80%	≥ 70%	more than 65%
COCCn1ccc(=O)c(O)c1C [compound 6, 3-hydroxy-1-(2-methoxyethyl)-2-methylpyridin-4-one]			≥ 80%	≥ 70%	more than 65%
Cc1c(O)c(=O)ccn1CCCCCC(=O)O [compound 7, 1-(5-carboxypentyl)-3-hydroxy-2-methylpyridin-4-one]			little inhibitory effect	little inhibitory effect	less than 12%
Cc1c(O)c(=O)ccn1CCCCCC(=O)NCCC(=O)O [compound 8, 1-(5-(N-(2-carboxyethyl)-carbamoyl)pentyl)-3-hydroxy-2-methylpyridin-4-one]			little inhibitory effect	little inhibitory effect	less than 12%
CCc1c(O)c(=O)ccn1C [compound 9, 2-ethyl-3-hydroxy-1-methyl-pyridin-4-one]			≥ 80%	≥ 70%	more than 65%
Cc1c(O)c(=O)ccn1CC(=O)O [compound (9), 1-carboxymethyl-3-hydroxy-2-methylpyridin-4-one]		somewhat greater than that of the compound 3-hydroxy-2-methyl-1-(2-sulphoethyl)pyridin-4-one			
